Experimental data reported in patent EP4782431A1 (Suzhou Merna Therapeutics Co. Ltd, priority 2023, dated 2025).

Key:
Format in all cases: physicochemical
[1] = stability of crystal forms (XRPD, HPLC, color)
Method: (§1) A 2θ scanning angle of the sample was 3°-40°, a scanning step size was 0.02°, and a scanning time per step was 0.12 s/step. An optical tube voltage and a current were 40 kV and 40 mA, respectively. During sample preparation, an appropriate amount of the sample was placed on a sample tray and flattened with a tool such as a glass slide to ensure a smooth and even surface.
An Agilent 1260 infinityII binary pump was used for solubility and stability testing.
The stability of samples under these conditions was detected by XRPD and HPLC, and whether the samples had color changes was observed.
(§2) A certain amount of the crystal form C of the compound of formula (I) was weighed and placed in an open container at 25°C/92.5%RH for 1 week. A certain amount of the crystal form C of the compound of formula (I) was weighed and placed in a closed container at 60°C for 1 week. The stability of samples under these conditions was detected by XRPD and HPLC, and whether the samples had color changes was observed. Table 16 Stability test results of the crystal form C of the compound of formula (I)
as §2, with “form D” for “form C”, “Table 17” for “Table 16”
as §2, with “form E” for “form C”, “Table 18” for “Table 16”

[2] = hygroscopicity by dynamic vapor sorption (DVS); settings: for 1st adsorption Percentage of weight change / 1st desorption Percentage of weight change / 2nd adsorption Percentage of weight change / 2nd desorption Percentage of weight change: 40-0-95-0-40%RH, 240 min per step
Method: ProUmid SPSx-1µ Advance was used for analysis of a sample. The sample to be tested was approximately in an amount of 5-50 mg. A temperature in a test chamber was controlled at 25±1°C, a relative humidity cycle was […], a step size was 10%, an equilibrium time was 240 minutes per step, and mass data was recorded every 20 seconds.
A DVS cycle was 40-0-95-0-40%RH. XRPD detection was performed on samples after the DVS testing to determine whether crystal form transformation occurred.

[3] = competitive suspension tests of crystal forms (XRPD)
Method: as §1
Resulting suspensions were suspended at 5°C, 25°C, and 50°C for 3 days, respectively. The resulting suspensions were centrifuged, and solid portions were detected by XRPD.

[4] = stability of crystal forms (XRPD, HPLC, color); settings: 25°C/92%RH open, 1 week

SMILES: NC(=O)[C@H]1CCCc2c1[nH]c1ccc(Cl)cc21 [Crystal form F, (S)-6-chloro-2,3,4,9-tetrahydro-1H-carbazole-carboxamide]
- Color ([1]; 60°C, closed, 1 week): No change
- Degradation (%) ([1]; 60°C, closed, 1 week): None
- Purity (%) ([1]; 60°C, closed, 1 week): 99.8%
- Purity (%) ([1]; Initial): 99.8%
- Hygroscopicity Conclusion ([2]; DVS at 25°C, Table 13): No hygroscopicity
- 1st adsorption Percentage of weight change ([2]; Relative humidity 0% at 25°C): 0.1%
- 1st desorption Percentage of weight change ([2]; Relative humidity 0% at 25°C): 0.1%
- 2nd adsorption Percentage of weight change ([2]; Relative humidity 0% at 25°C): 0.3%
- 2nd desorption Percentage of weight change ([2]; Relative humidity 0% at 25°C): 0.3%
- 1st adsorption Percentage of weight change ([2]; Relative humidity 10% at 25°C): 0.2%
- 1st desorption Percentage of weight change ([2]; Relative humidity 10% at 25°C): 0.3%
- 2nd adsorption Percentage of weight change ([2]; Relative humidity 10% at 25°C): 0.2%
- 2nd desorption Percentage of weight change ([2]; Relative humidity 10% at 25°C): 0.3%
- 1st adsorption Percentage of weight change ([2]; Relative humidity 20% at 25°C): 0.2%
- 1st desorption Percentage of weight change ([2]; Relative humidity 20% at 25°C): 0.1%
- 2nd adsorption Percentage of weight change ([2]; Relative humidity 20% at 25°C): 0.2%
- 2nd desorption Percentage of weight change ([2]; Relative humidity 20% at 25°C): 0.4%
- 1st adsorption Percentage of weight change ([2]; Relative humidity 30% at 25°C): 0.1%
- 1st desorption Percentage of weight change ([2]; Relative humidity 30% at 25°C): 0.1%
- 2nd adsorption Percentage of weight change ([2]; Relative humidity 30% at 25°C): 0.0%
- 2nd desorption Percentage of weight change ([2]; Relative humidity 30% at 25°C): 0.1%
- 1st adsorption Percentage of weight change ([2]; Relative humidity 40% at 25°C): 0.2%
- 1st desorption Percentage of weight change ([2]; Relative humidity 40% at 25°C): 0.2%
- 2nd adsorption Percentage of weight change ([2]; Relative humidity 40% at 25°C): 0.0%
- 2nd desorption Percentage of weight change ([2]; Relative humidity 40% at 25°C): 0.4%
- 1st adsorption Percentage of weight change ([2]; Relative humidity 50% at 25°C): 0.2%
- 2nd desorption Percentage of weight change ([2]; Relative humidity 50% at 25°C): 0.2%
- 1st adsorption Percentage of weight change ([2]; Relative humidity 60% at 25°C): 0.2%
- 2nd desorption Percentage of weight change ([2]; Relative humidity 60% at 25°C): 0.2%
- 1st adsorption Percentage of weight change ([2]; Relative humidity 70% at 25°C): 0.2%
- 2nd desorption Percentage of weight change ([2]; Relative humidity 70% at 25°C): 0.2%
- 1st adsorption Percentage of weight change ([2]; Relative humidity 80% at 25°C): 0.1%
- 2nd desorption Percentage of weight change ([2]; Relative humidity 80% at 25°C): 0.0%
- 1st adsorption Percentage of weight change ([2]; Relative humidity 90% at 25°C): 0.3%
- 2nd desorption Percentage of weight change ([2]; Relative humidity 90% at 25°C): 0.1%
- 1st adsorption Percentage of weight change ([2]; Relative humidity 95% at 25°C): 0.1%
- 2nd desorption Percentage of weight change ([2]; Relative humidity 95% at 25°C): 0.1%
- XRPD after DVS testing ([2]; after DVS cycle 40-0-95-0-40%RH at 25°C): Crystal form F
- crystal form after competitive suspension slurrying ([3]; isopropanol, isopropyl acetate, and acetonitrile, 5°C, 25°C, 50°C, 3 days): converted into the crystal form F
- relative stability of crystal forms ([3]; temperature range of 5°C to 50°C): more stable than the crystal forms B and G
- Color [4]: No change
- Degradation (%) [4]: None
- Purity (%) [4]: 99.8%
